Results published in US12448389B2, “BRM targeting compounds and associated methods of use” (Prelude Therapeutics Incorporated, priority 2020, dated 2025).

How the values were obtained:
SMARCA2-HiBiT = molecular target: T1, SMARCA2-HiBiT (Homo sapiens, UniProt P51531); assay: SMARCA2 HiBiT degradation assay in HeLa cells; type: cell-based; settings: 18 hours incubation; for DC50: read-out: HeLa_HiBit-SM2 DC50; for Dmax: HeLa, read-out: HeLa-HiBit-SM2 Dmax (%)
T1 construct: SMARCA2-HiBiT knock-in Hela monoclonal cell (CS302366); host or cells: HeLa monoclonal knock-in line (CRISPR HiBiT knock-in at the endogenous locus, heterozygous)
Outline: (§1)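 HeLa monoclonal lines with heterozygous HiBiT knock-in were seeded at 2500 cells/well in EMEM with 10% FBS and treated with compound for 18 h at 37 °C. Remaining tagged protein was measured by Nano-Glo HiBiT lytic luminescence after 30–60 min at RT, and values came from curve fitting.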

SMARCA4-HiBiT = molecular target: T2, SMARCA4-HiBiT (Homo sapiens, UniProt P51532); assay: SMARCA4 HiBiT degradation assay in HeLa cells; type: cell-based; settings: 18 hours incubation; for DC50: read-out: HeLa-HiBit-SM4 DC50; for Dmax: HeLa, read-out: HeLa-HiBit-SM4 Dmax (%)
T2 construct: SMARCA4-HiBiT knock-in Hela monoclonal cell (CS3023226); host or cells: HeLa monoclonal knock-in line (CRISPR HiBiT knock-in at the endogenous locus, heterozygous)
Outline: as §1

T1 sequence (P51531 whole entry): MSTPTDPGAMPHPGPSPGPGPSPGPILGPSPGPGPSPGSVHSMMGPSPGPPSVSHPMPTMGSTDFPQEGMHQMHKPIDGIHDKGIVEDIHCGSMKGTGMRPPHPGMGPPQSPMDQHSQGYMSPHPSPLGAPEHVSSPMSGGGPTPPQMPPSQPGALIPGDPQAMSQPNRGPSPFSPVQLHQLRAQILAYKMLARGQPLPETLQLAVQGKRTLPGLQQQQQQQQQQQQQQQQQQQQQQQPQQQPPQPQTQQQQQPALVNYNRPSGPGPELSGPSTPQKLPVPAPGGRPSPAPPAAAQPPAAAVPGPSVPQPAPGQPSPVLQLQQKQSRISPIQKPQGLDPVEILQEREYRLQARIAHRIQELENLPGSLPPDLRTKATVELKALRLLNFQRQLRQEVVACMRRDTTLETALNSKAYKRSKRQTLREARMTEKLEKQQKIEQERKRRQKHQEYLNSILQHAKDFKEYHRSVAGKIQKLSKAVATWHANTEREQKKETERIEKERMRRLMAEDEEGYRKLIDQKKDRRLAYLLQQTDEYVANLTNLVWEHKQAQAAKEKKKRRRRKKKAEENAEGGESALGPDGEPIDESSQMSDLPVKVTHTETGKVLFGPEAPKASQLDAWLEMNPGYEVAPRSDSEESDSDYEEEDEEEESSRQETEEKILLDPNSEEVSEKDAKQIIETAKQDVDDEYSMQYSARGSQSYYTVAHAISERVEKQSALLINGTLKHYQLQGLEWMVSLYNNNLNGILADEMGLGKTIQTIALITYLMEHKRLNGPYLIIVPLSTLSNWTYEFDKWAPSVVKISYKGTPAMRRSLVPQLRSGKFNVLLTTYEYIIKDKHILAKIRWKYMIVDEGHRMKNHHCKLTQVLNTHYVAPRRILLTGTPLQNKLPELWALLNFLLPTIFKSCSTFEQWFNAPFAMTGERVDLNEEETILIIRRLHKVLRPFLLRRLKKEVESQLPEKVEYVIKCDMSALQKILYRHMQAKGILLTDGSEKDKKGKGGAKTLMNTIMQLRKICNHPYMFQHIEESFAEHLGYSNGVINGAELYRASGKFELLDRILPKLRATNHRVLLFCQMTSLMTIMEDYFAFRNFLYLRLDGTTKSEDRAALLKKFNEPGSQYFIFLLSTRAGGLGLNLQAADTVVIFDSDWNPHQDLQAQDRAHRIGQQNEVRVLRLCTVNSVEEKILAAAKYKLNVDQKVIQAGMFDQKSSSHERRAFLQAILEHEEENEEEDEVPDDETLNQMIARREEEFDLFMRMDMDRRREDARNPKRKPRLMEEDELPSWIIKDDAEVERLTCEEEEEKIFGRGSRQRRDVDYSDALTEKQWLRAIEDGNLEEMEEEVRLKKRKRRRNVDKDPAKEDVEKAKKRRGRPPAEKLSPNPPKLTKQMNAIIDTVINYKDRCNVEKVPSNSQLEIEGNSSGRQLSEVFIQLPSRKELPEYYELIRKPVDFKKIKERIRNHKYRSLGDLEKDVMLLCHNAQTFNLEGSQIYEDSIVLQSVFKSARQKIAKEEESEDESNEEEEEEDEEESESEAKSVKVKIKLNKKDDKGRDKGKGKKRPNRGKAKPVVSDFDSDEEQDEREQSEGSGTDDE
T2 sequence (P51532 whole entry): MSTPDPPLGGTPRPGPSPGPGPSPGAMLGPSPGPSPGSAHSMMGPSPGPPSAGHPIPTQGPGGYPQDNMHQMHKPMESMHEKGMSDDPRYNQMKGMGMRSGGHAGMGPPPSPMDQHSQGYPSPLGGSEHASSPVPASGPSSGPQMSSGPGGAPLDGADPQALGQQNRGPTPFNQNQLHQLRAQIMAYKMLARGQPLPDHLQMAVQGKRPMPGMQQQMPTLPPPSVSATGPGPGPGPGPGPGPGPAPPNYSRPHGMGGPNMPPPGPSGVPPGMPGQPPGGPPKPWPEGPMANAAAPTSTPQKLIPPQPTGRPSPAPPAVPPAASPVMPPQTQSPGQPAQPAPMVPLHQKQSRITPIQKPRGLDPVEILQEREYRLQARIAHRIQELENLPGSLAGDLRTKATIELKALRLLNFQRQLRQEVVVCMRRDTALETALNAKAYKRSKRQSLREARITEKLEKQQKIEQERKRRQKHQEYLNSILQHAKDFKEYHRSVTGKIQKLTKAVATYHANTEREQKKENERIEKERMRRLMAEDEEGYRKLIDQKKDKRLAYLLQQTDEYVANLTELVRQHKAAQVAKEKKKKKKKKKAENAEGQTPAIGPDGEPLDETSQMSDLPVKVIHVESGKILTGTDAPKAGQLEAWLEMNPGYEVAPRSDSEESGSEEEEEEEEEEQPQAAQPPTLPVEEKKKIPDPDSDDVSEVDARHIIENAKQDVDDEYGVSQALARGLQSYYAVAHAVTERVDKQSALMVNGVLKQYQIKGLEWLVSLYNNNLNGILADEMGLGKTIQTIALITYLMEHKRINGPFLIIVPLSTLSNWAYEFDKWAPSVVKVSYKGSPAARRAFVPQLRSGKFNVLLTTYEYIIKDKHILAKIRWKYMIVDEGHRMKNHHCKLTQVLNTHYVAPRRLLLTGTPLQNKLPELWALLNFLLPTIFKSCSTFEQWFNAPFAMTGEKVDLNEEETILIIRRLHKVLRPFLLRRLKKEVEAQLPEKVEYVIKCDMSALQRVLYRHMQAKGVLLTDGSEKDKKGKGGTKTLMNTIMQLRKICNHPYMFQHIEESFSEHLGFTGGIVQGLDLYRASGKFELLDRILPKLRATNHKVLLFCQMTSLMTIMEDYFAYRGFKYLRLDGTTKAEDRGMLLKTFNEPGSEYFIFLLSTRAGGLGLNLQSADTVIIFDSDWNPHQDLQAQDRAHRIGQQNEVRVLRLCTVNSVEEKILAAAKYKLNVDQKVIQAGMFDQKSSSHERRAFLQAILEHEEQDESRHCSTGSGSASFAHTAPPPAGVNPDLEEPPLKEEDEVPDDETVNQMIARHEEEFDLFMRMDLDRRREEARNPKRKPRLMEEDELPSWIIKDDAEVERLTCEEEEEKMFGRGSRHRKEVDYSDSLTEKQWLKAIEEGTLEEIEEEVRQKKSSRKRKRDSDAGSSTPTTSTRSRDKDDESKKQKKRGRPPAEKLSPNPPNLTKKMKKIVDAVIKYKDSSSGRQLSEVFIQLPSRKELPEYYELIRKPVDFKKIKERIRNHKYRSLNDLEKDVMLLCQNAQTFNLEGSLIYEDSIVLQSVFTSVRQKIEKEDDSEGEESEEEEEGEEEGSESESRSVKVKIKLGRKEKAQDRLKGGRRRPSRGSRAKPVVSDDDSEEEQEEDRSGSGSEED

DC50 (SMARCA2-HiBiT) [nM] | Dmax (SMARCA2-HiBiT) [%] | DC50 (SMARCA4-HiBiT) [nM] | Dmax (SMARCA4-HiBiT) [%] | SMILES
< 10 | 75 to 85 | < 10 | 75 to 85 | O=C1CCC(N2C(=O)c3ccc(N4CCC(CNC56CCC(C(=O)N7CCN8c9cc(-c%10ccccc%10O)nnc9NC[C@H]8C7)(CC5)CC6)CC4)cc3C2=O)C(=O)N1 (stereo partly drawn) [Example 81, 2-(2,6-dioxopiperidin-3-yl)-5-(4-(((4-((S)-2-(2-hydroxyphenyl)-6,6a,7,8,9,10-hexahydro-5H-pyrazino[1′,2′:4,5]pyrazino[2,3-c]pyridazine-8-carbonyl)bicyclo[2.2.2]octan-1-yl)amino)methyl)piperidin-1-yl)isoindoline-1dione]
< 10 | 50 to 75 | 10 to 100 | 50 to 75 | O=C1CCC(N2C(=O)c3ccc(N4CCC(CN5CCC(NC6CCN7c8cc(-c9ccccc9O)nnc8NCC7C6)CC5)CC4)cc3C2=O)C(=O)N1 (centres unmarked) [Example 253, 2-(2,6-dioxopiperidin-3-yl)-5-(4-((4-((2-(2-hydroxyphenyl)-6,6a,7,8,9,10-hexahydro-5H-pyrido[1′,2′:4,5]pyrazino[2,3-c]pyridazin-8-yl)amino)piperidin-1-yl)methyl)piperidin-1-yl) isoindoline-1,3-dione]
